From patent publication US5523407A, “Quinoline derivatives, their production and use as ACAT inhibitors” (Takeda Chemical Industries, Ltd., priority 1989, dated 1996)

Experiments:
[1] = target: T1, Acyl-CoA: cholesterol acyltransferase (ACAT) (Rattus norvegicus, UniProt Q7TQM4); assay: ACAT inhibitory activity (rat small intestine mucosal microsome; labeled cholesterol ester from [1-^14 C] oleoyl-CoA); type: biochemical, Sprague-Dawley rat; details: 10^-6 M test compound; read-out: ACAT Inhibition Rate
T1 construct: from the mucosal microsome fraction of the small intestine; from tissue; host or cells: small intestine mucosal microsomes, male 6-week old Sprague-Dawley rats fasted 20 hours
T1 sequence (Q7TQM4 1-524): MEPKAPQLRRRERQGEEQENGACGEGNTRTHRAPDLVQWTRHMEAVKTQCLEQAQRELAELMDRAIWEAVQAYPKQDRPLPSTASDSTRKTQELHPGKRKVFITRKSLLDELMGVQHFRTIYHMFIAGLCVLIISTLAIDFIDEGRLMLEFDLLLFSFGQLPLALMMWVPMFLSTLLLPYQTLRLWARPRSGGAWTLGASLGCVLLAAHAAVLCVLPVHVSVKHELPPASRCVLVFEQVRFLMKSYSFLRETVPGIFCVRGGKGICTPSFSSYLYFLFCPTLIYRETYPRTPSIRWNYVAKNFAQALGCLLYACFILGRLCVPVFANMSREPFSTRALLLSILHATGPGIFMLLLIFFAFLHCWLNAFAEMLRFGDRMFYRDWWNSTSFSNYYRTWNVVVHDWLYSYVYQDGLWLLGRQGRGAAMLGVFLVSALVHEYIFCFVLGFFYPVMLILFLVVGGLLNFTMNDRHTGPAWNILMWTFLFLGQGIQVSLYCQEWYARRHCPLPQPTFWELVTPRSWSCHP
Method: 1. Acyl-CoA: cholesterol acyltransferase (ACAT) inhibitory activity
The enzyme ACAT was prepared by the method of Heider et al. described in Journal of Lipid Research, Vol. 24, page 1127 (1982), from the mucosal microsome fraction of the small intestine of male, 6-week old Sprague-Dawley rats which had been fasted for 20 hours.
ACAT activity was calculated by the method of Helgerud et. al. described in Journal of Lipid Research, Vol. 22, page 271 (1981), namely, by measuring the amount of the labeled cholesterol ester produced from [1-^14 C] oleoyl-CoA and endogenous cholesterol.
Inhibition rates (%) of the production of the labeled cholesterol ester wherein 10-^6 M of test compounds were added are shown as an index of ACAT inhibitory activity in Table 1.

[2] = test system: lipoperoxide production in homogenized brain; assay: Lipoperoxide inhibitory activity (natural oxidation of homogenized rat brain, malonodialdehyde by TBA method); type: biochemical, Sprague-Dawley rat; details: for Lipoperoxide inhibition rate: 10^-5 M test compound; for IC50: read-out: Lipoperoxide Inhibitory Activity, 50% inhibitory concentration (IC50)
Method: 2. Lipoperoxide inhibitory activity
From 10-week, old, male Sprague-Dawely rats which were fed CE-2 diet (Nippon Claire) and water, their brains were taken out by the method of Stocks disclosed in Clinical Science Molecular Medicine, Vol. 78, page 215 (1974), to form lipoperoxide by natural oxidation. The compound (I) in an amount of 10-^3 moles was dissolved in ethanol, and the resultant (10 μl) was added to each homogenized brain. On the other hand, ethanol from which the compound (I) was removed was added to a control group of homogenized brain. A malonodialdehyde was measured by the (TBA) method disclosed in Okawa et al., Analysis Biochemistry, Vol. 95, page 351 (1979). The produced lipoperoxide was calculated based on the measured value of malonodialdehyde.

Row | SMILES | inhibition at 1 µM [1] [%] | IC50 [2] [nM] | Lipoperoxide inhibition rate [2] [%]
1 | Cc1cc(C)c2ncc(NC(=O)c3cc(C(C)(C)C)c(O)c(C(C)(C)C)c3)c(-c3ccccc3Cl)c2c1 [Example 1, 4-(2-chlorophenyl)-3-(3,5-di-tert-butyl-4-hydroxybenzamido)-6,8-dimethylquinoline] | 82.2 |  | 
2 | COc1ccc(-c2c(NC(=O)c3cc(C(C)(C)C)c(O)c(C(C)(C)C)c3)cnc3ccc(Cl)cc23)cc1OC [Example 3, 3-(3,5-di-tert-butyl-4-hydroxybenzamido)-6-chloro-4-(3,4-dimethoxyphenyl)quinoline] | 83.4 |  | 
3 | COc1ccc(-c2c(NC(=O)c3cc(C(C)(C)C)c(O)c(C(C)(C)C)c3)cnc3ccc(Cl)cc23)c(OC)c1OC [Example 4, 3-(3,5-di-tert-butyl-4-hydroxybenzamido)-6-chloro-4-(2,3,4-trimethoxyphenyl) quinoline] | 84.8 |  | 
4 | CC(=O)Oc1c(C(C)C)cc(C(=O)Nc2cnc3c(C)cc(C)cc3c2-c2ccccc2Cl)cc1C(C)C [Example 6, 3-(4-acetoxy-3,5-diisopropylbenzamido)-4-(2-chlorophenyl)-6,8-dimethylquinoline] | 79.3 |  | 
5 | CC(=O)Oc1c(C)cc(C(=O)Nc2cnc3c(C)cc(C)cc3c2-c2ccccc2Cl)cc1C [Example 8, 3-(4-acetoxy-3,5-dimethylbenzamido)-4-(2-chlorophenyl)-6,8-dimethylquinoline] | 62 |  | 
6 | Cc1cc(C)c2ncc(NC(=O)c3cc(C)c(O)c(C)c3C)c(-c3ccccc3Cl)c2c1 [Example 11, 4-(2-chlorophenyl)-3-(4-hydroxy-2,3,5-trimethylbenzamido)-6,8-dimethylquinoline] | 94.3 |  | 
7 | Cc1cc(C)c2ncc(NC(=O)C3(C)CCc4c(C)c(O)c(C)c(C)c4O3)c(-c3ccccc3Cl)c2c1 (stereo not drawn) [Example 12, 4-(2-chlorophenyl)-3-(6-hydroxy-2,5,7,8-tetramethylchroman-2-ylcarbonyl)amino-6,8-dimethylquinoline] | 41.2 |  | 98.5
8 | CC(=O)Oc1c(C)c(C)c2c(c1C)CC(C)(C(=O)Nc1cnc3c(C)cc(C)cc3c1-c1ccccc1Cl)O2 (stereo not drawn) [Example 13, 3-(5-acetoxy-2,3-dihydro-2,4,6,7-tetramethylbenzofuran-2-ylcarbonyl)amino-4-(2-chlorophenyl)-6,8-dimethylquinoline] | 64.7 |  | 71.6
9 | Cc1cc(C)c2ncc(NC(=O)C3(C)Cc4c(C)c(O)c(C)c(C)c4O3)c(-c3ccccc3Cl)c2c1 (stereo not drawn) [Example 14, 4-(2-chlorophenyl)-3-(2,3-dihydro-5-hydroxy-2,4,6,7-tetramethylbenzofuran-2-ylcarbonyl)amino-6,8-dimethylquinoline] | 83.1 | 370 | 98.4
10 | COc1cc(C=CC(=O)Nc2cnc3c(C)cc(C)cc3c2-c2ccccc2Cl)cc(OC)c1OC(C)=O [Example 27, 3-(4-acetoxy-3,5-dimethoxylcinnamoylamino)-4-(2-chlorophenyl)-6,8-dimethylquinoline] | 83.7 |  | 90.2

More lines, main results first:

Row | inhibition at 1 µM [1] [%] | IC50 [2] [nM] | SMILES | Lipoperoxide inhibition rate [2] [%]
11 | 76 |  | CC1=C(C(=O)Nc2cnc3c(C)cc(C)cc3c2-c2ccccc2Cl)Sc2ccccc2N1 [Example 15, 4-(2-chlorophenyl)-6,8-dimethyl-3-(3-methyl-4H-1,4-benzothiazin-2-ylcarbonyl) aminoquinoline] | 
12 | 72.6 | 1200 | CC1=C(C(=O)Nc2cnc3c(C)cc(C)cc3c2-c2ccccc2Cl)Sc2cc(F)ccc2N1 [Example 16, 4-(2-chlorophenyl)-3-(7-fluoro-3-methyl-4H-1,4-benzothiazin-2-ylcarbonyl)amino-6,8-dimethylquinoline] | 100
13 | 94 |  | Cc1cc(C)c2ncc(NC(=O)Cc3ccc(F)cc3F)c(-c3ccccc3Cl)c2c1 [Example 18, 4-(2-chlorophenyl)-3-(2,4-difluorophenylacetylamino)-6,8-dimethylquinoline] | 
14 | 92.6 |  | COc1ccc(C=CC(=O)Nc2cnc3cc(C)c(C)cc3c2-c2ccccc2Cl)cc1OC [Example 22, 4-(2-chlorophenyl)-3-(3,4-dimethoxycinnamoylamino)-6,7-di-methylquinoline] | 
15 | 65.9 |  | COC(=O)c1ccc(C=CC(=O)Nc2cnc3c(C)cc(C)cc3c2-c2ccccc2Cl)cc1 [Example 23, 4-(2-chlorophenyl)-3-(4-methoxycarbonylcinnamoylamino)-6,8-dimethylquinoline] | 
16 | 69.4 |  | COc1cccc(C=CC(=O)Nc2cnc3c(C)cc(C)cc3c2-c2ccccc2Cl)c1OC [Example 24, 4-(2-chlorophenyl)-3-(2,3-dimethoxycinnamoylamino)-6,8-di-methylquinoline] | 
17 | 73.7 |  | COc1ccc(OC)c(C=CC(=O)Nc2cnc3c(C)cc(C)cc3c2-c2ccccc2Cl)c1 [Example 25, 4-(2-chlorophenyl)-3-(2,5-dimethoxycinnamoylamino)-6,8-dimethylquinoline] | 
18 | 66.6 | 400 | Cc1cc(C)c2ncc(NC(=O)C=Cc3cccc(O)c3O)c(-c3ccccc3Cl)c2c1 [Example 32, 4-(2-chlorophenyl)-3-(2,3-dihydroxycinnamoylamino)-6,8-dimethylquinoline] | 99.7
19 | 81.7 | 1300 | COc1cc(C=CC(=O)Nc2cnc3c(C)cc(C)cc3c2-c2ccccc2Cl)cc(OC)c1O [Example 33, 4-(2-chlorophenyl)-3-(4-hydroxy-3,5-dimethoxycinnamonylamino)-6,8-dimethylquinoline] | 96.1
20 | 86.4 |  | Cc1cc(C)c2ncc(NC(=O)C=Cc3cc(C)c(O)c(C)c3)c(-c3ccccc3Cl)c2c1 [Example 34, 4-(2-chlorophenyl)-3-(4-hydroxy-3,5-dimethylcinnamoylamino)-6,8-dimethylquinoline] | 62.1
21 | 81.7 | 810 | Cc1cc(C)c2ncc(NC(=O)C=Cc3cc(C)c(O)c(C)c3C)c(-c3ccccc3Cl)c2c1 [Example 35, 4-(2-chlorophenyl)-3-(4-hydroxy-2,3,-trimethylcinnamoylamino)-6,8-dimethylquinoline] | 84.9
22 | 63 |  | COc1ccc(C=CC(=O)Nc2c(-c3ccccc3Cl)c3cc(C)cc(C)c3n(C)c2=O)cc1OC [Example 36, 4-(2-chlorophenyl)-3-(3,4-dimethoxycinnamoylamino)-1,6,8-trimethyl-2(1H)-quinolone] | 
23 | 78.2 |  | Cc1cc(C)c2ncc(NC(=O)C=Cc3ccc(O)c(O)c3)c(-c3ccccc3Cl)c2c1 [Example 38, 4-(2-chlorophenyl)-3-(3,4-dihydroxycinnamoylamino)-6,8-dimethylquinoline] | 
24 | 97 |  | O=C(C=Cc1ccc(O)c(O)c1)Nc1cnc2ccc(Cl)cc2c1-c1ccccc1Cl [Example 43, 6-chloro-4-(2-chlorophenyl)-3-(3,4-dihydroxycinnamoylamino)quinoline] | 
25 | 72.6 |  | COc1ccc(C=CC(=O)Nc2cnc3c(C)cc(C)cc3c2-c2ccccc2Cl)c(OC)c1OC [Example 46, 4-(2-chlorophenyl)-6,8-dimethyl-3-(2,3,4-trimethoxycinnamoylamino) quinoline] | 
